Target: T1, androgen receptor (Rattus norvegicus, UniProt P15207)
T1 construct: from tissue; host or cells: prostate cytosol (209,000 g supernatant) of male Sprague Dawley rats castrated 24 hours previously
T1 sequence (P15207 1-902): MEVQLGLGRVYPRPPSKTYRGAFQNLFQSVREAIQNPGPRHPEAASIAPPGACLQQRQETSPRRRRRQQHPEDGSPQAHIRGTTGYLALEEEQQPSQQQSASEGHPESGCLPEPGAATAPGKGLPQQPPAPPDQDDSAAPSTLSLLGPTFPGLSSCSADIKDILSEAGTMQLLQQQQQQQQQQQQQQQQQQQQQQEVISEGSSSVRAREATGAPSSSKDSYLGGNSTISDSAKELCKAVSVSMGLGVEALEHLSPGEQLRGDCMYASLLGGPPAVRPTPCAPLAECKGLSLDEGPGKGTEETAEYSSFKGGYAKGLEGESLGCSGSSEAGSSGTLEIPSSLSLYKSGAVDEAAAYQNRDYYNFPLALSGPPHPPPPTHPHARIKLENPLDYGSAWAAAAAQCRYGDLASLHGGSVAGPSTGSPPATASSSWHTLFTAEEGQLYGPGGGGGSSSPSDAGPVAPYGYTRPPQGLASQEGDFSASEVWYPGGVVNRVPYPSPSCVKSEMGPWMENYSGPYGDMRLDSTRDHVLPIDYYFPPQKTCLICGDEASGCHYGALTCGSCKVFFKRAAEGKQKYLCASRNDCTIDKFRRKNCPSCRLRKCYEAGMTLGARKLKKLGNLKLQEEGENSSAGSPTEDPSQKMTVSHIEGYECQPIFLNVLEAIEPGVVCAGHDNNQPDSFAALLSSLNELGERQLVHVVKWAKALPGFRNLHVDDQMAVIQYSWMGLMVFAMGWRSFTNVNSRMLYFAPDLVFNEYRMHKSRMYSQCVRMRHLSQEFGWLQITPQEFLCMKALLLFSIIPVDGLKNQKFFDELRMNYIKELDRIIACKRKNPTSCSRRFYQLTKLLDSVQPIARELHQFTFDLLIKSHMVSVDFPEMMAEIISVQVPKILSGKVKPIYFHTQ
Assay: Affinity of the products for the androgen receptor (relative bond affinity, displacement of tritiated testosterone in prostate cytosol)
Format: binding
Experimental: Study of the affinity of the products for the androgen receptor
Calculation of the relative bond affinity (RBA).
The following 2 curves were drawn: the percentage of bound tritiated hormone B/T as a function of the logarithm of the concentration of the unlabelled reference hormone and B/T as a function of the logarithm of the concentration of the unlabelled tested product. The straight line of the equation I50 =(B/Tmax+B/Tmin)/2 was determined.
B/T max=% of the bound tritiated hormone for an incubation of this tritiated hormone at the concentration (T).
B/T min=% of the bound tritiated hormone for an incubation of this tritiated hormone at the concentration (T) in the presence of a large excess of unlabelled hormone (2500.10^-9 M).
The intersections of the straight line I50 and the curves allowed the evaluation of the concentrations of the unlabelled reference hormone (CH) and of the tested unlabelled product (CX) which inhibit by 50% the binding of the tritiated hormone on the receptor.

SMILES | RBA: Incubation 24 hours
N#CCN1C(=O)N(c2ccc(C#N)c(C(F)(F)F)c2)C(=O)C12CCOCC2 [Example 10, 3-(4-cyano-3-(trifluoromethyl)-phenyl)-2,4-dioxo-8-oxa-1,3-diazaspiro[4.5]decan-1-acetonitrile] | 5
N#Cc1ccc(N2C(=O)N(CCCCO)C3(CCOCC3)C2=O)cc1C(F)(F)F [Example 3, 4-(2,4-dioxo-1-(4-hydroxybutyl)-8-oxa-1,3-diazaspiro[4.5]decan-3-yl)-2-(trifluoromethyl)-benzonitrile] | 6
